This is an account of results in PMC4094919, “Screening and hit evaluation of a chemical library against blood-stage Plasmodium falciparum” (Malaria Journal, 2014).

For experiment [1], the system named is P. falciparum NF54 strain. As to the kind of experiment: P. falciparum NF54 growth assay, 3H-hypoxanthine incorporation (hit validation). The settings on record: for EC50: Plasmodium falciparum; for Comment (activity in words on retest): hit validation, NF54 confirmatory assay. Type of experiment: cell-based, Plasmodium falciparum. As to the method: Synthesized compounds were tested in an alternative assay, in which ^3H-hypoxanthine incorporation was measured in the chloroquine-sensitive strain NF54 (Values were measured in duplicate, 12 points/EC50).
Cultivation of Plasmodium falciparum: Plasmodium falciparum strain NF54 was obtained from the Research and Reference Reagent Resource Center (MR4) (Manassas, VA, USA). The two strains were maintained in vitro by a modification of the method of Trager and Jensen. Cultures were maintained in A positive (A^+) human erythrocytes suspended at 5% hematocrit in complete medium. […] Parasite growth and morphology were observed daily using thin smears at 100X (oil immersion) magnification following staining with Giemsa stain.
Plasmodium falciparum growth assay: The protocol assesses the compound efficacy against the growth of P. falciparum in vitro.
All cultures used in the study are albumax II adopted. […]
Following the incubation period, the plates were harvested with a FilterMate cell harvester (Perkin Elmer) onto unifilter-96 GF/B plates, washed with distilled water to remove excess radiochemical and plates were kept for drying 37°C overnight or 60°C for 1 hr. Fifty µL of Microscint scintillation cocktail (Microscint-High Efficiency LSC-Cocktail; Perkin Elmer) added in the unifilter-96 GF/B plates and kept for 15-20 min. The plates were counted in a Top Count NXT microplate scintillation and luminescence counter (Perkin Elmer). The mean values for [^3H]-hypoxanthine incorporation in parasitized control and non-parasitized control erythrocytes were calculated.
Assay data were analysed using Graph pad prism ver.5 software. A variable sigmoid dose response curve is plotted keeping log concentrations at X-axis and % inhibition at Y-axis.

The test system of the next experiment is P. falciparum 3D7 strain. As to the kind of experiment: P. falciparum 3D7 growth inhibition, DAPI imaging (HTS screen). Type of experiment: cell-based. On the procedure: The P. falciparum 3D7 strain was used for the primary screen.
For the screening of the chemical library, a validated high throughput screening (HTS) method was used as reported by Duffy and Avery. In brief, intra-erythrocyte P. falciparum 3D7 parasites incubated with the compounds for 72 hours were stained with 4′-6-diamidino-2-phenylindole (DAPI) and imaged using a high throughput confocal imaging system. To ascertain inhibition of parasite growth, images of fluorescent parasites were translated, using a mathematical algorithm, into a numerical output of classified spots (parasites) as determined by fluorescence size and intensity.
EC50 and CC50 values were calculated for compounds which presented an Emax plateau using GraphPad Prism.

The mark [2] stands for this setting: P. falciparum NF54 strain, 3H-hypoxanthine incorporation, newly synthesized sample, read-out: EC50 (NF54).
The mark [3] stands for this setting: negative logarithm of the molar EC50, NF54, read-out: pEC50 (NF54) (converted).
Setting [4] is: NF54, heading bounds of Figure 8: not reconfirming / reconfirming / newly synthesized compounds, read-out: EC50 (bound in Figure 8).
The mark [5] stands for this setting: Plasmodium falciparum; P. falciparum 3D7 strain, DAPI imaging, HTS screen, library sample; read-out: EC50 (3D7).
Where [6] appears, read: Plasmodium falciparum; negative logarithm of the molar EC50, 3D7; read-out: pEC50 (3D7) (converted).
Where [7] appears, read: 3D7 / NF54, range over HTS (3D7) and retest after synthesis (NF54), read-out: EC50 range over the two assays.

Entries after “also recorded” stand apart in the source; their conditions may differ. Where two headings read alike, the source gives them in different places. Marks after values point to notes of the source that are not given here.

In the case of `CC(=O)N1c2ccccc2[C@@H](c2ccccc2)[C@@H]1C(=O)O` (racemic) [Compound 4a, Rac (2R,3R)-1-acetyl-3-phenylindoline-2-carboxylic acid], the EC50 in experiment [1] (setting [2]) and in experiment [1] (setting [3]) was greater than 10000 nM in each case. The “Comment (activity in words on retest)” value in experiment [1] is given as “did not confirm activity; also recorded: Inactive”.

For the compound `Cc1c(Cc2c(C)n(Cc3ccccc3C#N)c3ccccc23)c2ccccc2n1Cc1ccccc1C#N` [Compound 2, 2,2'-((3,3'-methylenebis(2-methyl-1H-indole-3,1-diyl))bis(methylene))dibenzonitrile], the EC50 in experiment [1] (setting [2]) was 763 nM; in experiment [1] (setting [3]), 794 nM. Further, the “Comment (activity in words on retest)” value in experiment [1] is given as “EC50 in the same range as initially described during the HTS”.

On to `CC(C)(C)CC(=O)N(Cc1ccc(NC(=O)c2ccc(C#N)cc2)cc1)CC(C)(C)CN` [Compound 3, N-(4-((N-(3-amino-2,2-dimethylpropyl)-3,3-dimethylbutanamido)methyl)phenyl)-4-cyanobenzamide], for which the EC50 is greater than 1000 nM in experiment [1] (setting [4]); 3000 nM in experiment [1] (setting [2]); 3160 nM in experiment [1] (setting [3]); 222 nM in the experiment with P. falciparum 3D7 strain (setting [5]); 200 nM with P. falciparum 3D7 strain (setting [6]). The “Comment (activity in words on retest)” value in experiment [1] is reported as “Weakly active”.

On to `CC(=O)N1c2ccccc2C(c2ccccc2)C1C(=O)O` (stereo not drawn) [Compound 4], for which the EC50 was greater than 1000 nM in experiment [1] (setting [4]), 172 nM in the experiment with P. falciparum 3D7 strain (setting [5]) and 158 nM with P. falciparum 3D7 strain (setting [6]).

On to `COc1ccc(NC(=O)c2cnn(-c3ccccc3)c2-c2ccccc2)c(OC)c1` [Compound 5, N-(2,4-dimethoxyphenyl)-1,5-diphenyl-1H-pyrazole-4-carboxamide], for which the EC50 in experiment [1] (setting [4]) is greater than 1000 nM; in experiment [1] (P. falciparum NF54, after synthesis, read-out: EC50 (NF54)) it was roughly 4000 nM; in experiment [1] (setting [2]), 3900 nM; in experiment [1] (setting [3]), 3980 nM; with P. falciparum 3D7 strain (setting [5]), 870 nM; in the experiment with P. falciparum 3D7 strain (setting [6]), 794 nM. The “Comment (activity in words on retest)” value in experiment [1] was “Weakly active”.

Regarding `CC(=O)N1CCN(Cc2coc(Cc3ccccc3)n2)CC1` [Compound 6, 1-(4-((2-benzyloxazol-4-yl)methyl)piperazin-1-yl)ethanone], the EC50 in experiment [1] (setting [4]) is greater than 1000 nM; in experiment [1] (setting [2]), greater than 10000 nM; in experiment [1] (setting [3]), greater than 10000 nM; with P. falciparum 3D7 strain (setting [5]) it was less than 10 nM; with P. falciparum 3D7 strain (setting [6]), less than 10 nM. Also, the “Comment (activity in words on retest)” value in experiment [1] was “Inactive”.

Consider `O=C(Nc1cc(=O)[nH]c2nc(-c3ccccc3)nn12)C1CCCCC1` [Compound 7, N-(5-oxo-2-phenyl-4,5-dihydro-[1,2,4]triazolo[1,5-a]pyrimidin-7-yl)cyclohexanecarboxamide], for which the EC50 was 450 to 648 nM in experiment [1] (setting [7]); less than 1000 nM in experiment [1] (setting [4]); 450 nM in experiment [1] (setting [2]); 501 nM in experiment [1] (setting [3]); 648 nM in the experiment on P. falciparum 3D7 strain (setting [5]); 631 nM in the experiment on P. falciparum 3D7 strain (setting [6]). Besides, the “Comment (activity in words on retest)” value in experiment [1] is listed as “Validated hit, CHEMBL587310^f)”.

Consider `COc1ccc(-c2cnc3sc(NC4CCC(N)CC4)nn23)cn1` (stereo not drawn) [Compound 8, N1-(5-(6-methoxypyridin-3-yl)imidazo[2,1-b][1,3,4]thiadiazol-2-yl)cyclohexane-1,4-diamine], for which the EC50 in experiment [1] (3D7 / NF54, read-out: EC50 range over the two assays) is 284 to 287 nM; in experiment [1] (NF54, read-out: EC50 (NF54)) it was 284 nM; in experiment [1] (NF54, read-out: EC50 (bound in Figure 8)), less than 1000 nM; in experiment [1] (NF54, read-out: pEC50 (NF54) (converted)) it was 316 nM; in the experiment with P. falciparum 3D7 strain (Plasmodium falciparum, 3D7, read-out: EC50 (3D7)), 297 nM; in the experiment with P. falciparum 3D7 strain (Plasmodium falciparum, 3D7, read-out: pEC50 (3D7) (converted)), 316 nM.

On to `CCOc1ncccc1C(=O)Nc1cc(C(F)(F)F)ccc1Oc1cccc(OC)c1` [Compound 9, 2-ethoxy-N-(2-(3-methoxyphenoxy)-5-(trifluoromethyl)phenyl)nicotinamide], for which the EC50 is 309 to 393 nM in experiment [1] (setting [7]); less than 1000 nM in experiment [1] (setting [4]); 309 nM in experiment [1] (setting [2]); 316 nM in experiment [1] (setting [3]); 393 nM in the experiment with P. falciparum 3D7 strain (setting [5]); 398 nM with P. falciparum 3D7 strain (setting [6]). Also, the “Comment (activity in words on retest)” value in experiment [1] was “Validated hit”.

Regarding `O=C(O)C1Cc2c([nH]c3ccccc23)C(c2ccc(Cl)cc2Cl)N1` (stereo not drawn) [Compound 14], the values for the EC50 with P. falciparum 3D7 strain (setting [5]) and with P. falciparum 3D7 strain (setting [6]) were 350 nM and 316 nM, respectively.

Regarding `O=C(O)[C@@H]1Cc2c([nH]c3ccccc23)[C@H](c2ccc(Cl)cc2Cl)N1` [Compound 14a, (1S,3S)-1-(2,4-dichlorophenyl)-2,3,4,9-tetrahydro-1H-pyrido[3,4-b]indole-3-carboxylic acid], the values for the EC50 in experiment [1] (setting [4]), in experiment [1] (setting [2]) and in experiment [1] (setting [3]) were less than 1000 nM, greater than 10000 nM and greater than 10000 nM, respectively. For the same compound, the “Comment (activity in words on retest)” value in experiment [1] was “Inactive”.

Regarding `O=C(O)[C@@H]1Cc2c([nH]c3ccccc23)[C@@H](c2ccc(Cl)cc2Cl)N1` [Compound 14b, (1R,3S)-1-(2,4-dichlorophenyl)-2,3,4,9-tetrahydro-1H-pyrido[3,4-b]indole-3-carboxylic acid], the EC50 is less than 1000 nM in experiment [1] (setting [4]), 167 nM in experiment [1] (setting [2]) and 158 nM in experiment [1] (setting [3]). For the same compound, the “Comment (activity in words on retest)” value in experiment [1] is reported as “Hit”.

With `O=C(O)[C@H]1Cc2c([nH]c3ccccc23)[C@@H](c2ccc(Cl)cc2Cl)N1` [Compound 14c], the values for the EC50 in experiment [1] (setting [4]), in experiment [1] (setting [2]) and in experiment [1] (setting [3]) were less than 1000 nM, 4200 nM and 3980 nM, respectively. Further, in experiment [1], the “Comment (activity in words on retest)” value is on record as “weak activity; also recorded: Weakly active”.

Turning to `O=C(O)[C@H]1Cc2c([nH]c3ccccc23)[C@H](c2ccc(Cl)cc2Cl)N1` [Compound 14d], the EC50 in experiment [1] (setting [4]) was less than 1000 nM; in experiment [1] (setting [2]), greater than 10000 nM; in experiment [1] (setting [3]) it was greater than 10000 nM. Also, the “Comment (activity in words on retest)” value in experiment [1] is “Inactive”.

As for `Cc1ccc(S(=O)(=O)N2CC(C)N(Cc3ccc(C(=O)NC4CC4)cc3)CC2C)cc1` (stereo not drawn) [Compound 15, N-cyclopropyl-4-((2,5-dimethyl-4-tosylpiperazin-1-yl)methyl)benzamide], in the experiment on P. falciparum 3D7 strain (setting [5]), the EC50 came out at 678 nM.

Consider `Cc1ccc(S(=O)(=O)N2C[C@H](C)N(Cc3ccc(C(=O)NC4CC4)cc3)C[C@@H]2C)cc1` [Compound 15a], for which the “Difference in activity between the two enantiomers” value in experiment [1] (15a versus 15b, NF54 EC50) is recorded as “more than 15 fold”. For the same compound, the EC50 was less than 1000 nM in experiment [1] (setting [4]), 44 nM in experiment [1] (setting [2]) and 39.8 nM in experiment [1] (setting [3]). Also, the “Comment (activity in words on retest)” value in experiment [1] was “Hit”.

`Cc1ccc(S(=O)(=O)N2C[C@@H](C)N(Cc3ccc(C(=O)NC4CC4)cc3)C[C@H]2C)cc1` [Compound 15b]: the figures for the EC50 in experiment [1] (setting [4]), in experiment [1] (setting [2]) and in experiment [1] (setting [3]) were less than 1000 nM, 679 nM and 631 nM, respectively. In addition, the “Comment (activity in words on retest)” value in experiment [1] was “Hit”.

Turning to `Cc1ccc(S(=O)(=O)N2CCN(Cc3ccc(C(=O)NC4CC4)cc3)CC2)cc1` [Compound 15c, N-cyclopropyl-4-((4-tosylpiperazin-1-yl)methyl)benzamide], the EC50 in experiment [1] (setting [4]) is less than 1000 nM; in experiment [1] (setting [2]), 535 nM; in experiment [1] (setting [3]), 501 nM. Moreover, in experiment [1], the “Comment (activity in words on retest)” value was “Hit”.

As to `CC(C)=CCN1CCC2(CC1)CN(C(=O)Nc1cccc(C#N)c1)c1ccc(C)cc12` [Compound 16], the EC50 was 990 nM with P. falciparum 3D7 strain (Plasmodium falciparum, 3D7; read-out: EC50 (3D7)); less than 1000 nM in the experiment with P. falciparum 3D7 strain (Plasmodium falciparum, 3D7; read-out: Potency at HTS (3D7)); 1000 nM with P. falciparum 3D7 strain (Plasmodium falciparum, 3D7; read-out: pEC50 (3D7) (converted)).

For the compound `O=C(Nc1cccc(Cl)c1)N1CC2(CCN(Cc3ccccc3)CC2)c2ccccc21` [Compound 17, 1'-benzyl-N-(3-chlorophenyl)spiro[indoline-3,4'-piperidine]-1-carboxamide], the EC50 was less than 1000 nM in experiment [1] (setting [4]), 309 nM in experiment [1] (setting [2]) and 316 nM in experiment [1] (setting [3]). In experiment [1], the “Comment (activity in words on retest)” value is on record as “Hit”.
